Test results as given in ChEMBL document CHEMBL4359874, “Synthesis of novel tellurides bearing benzensulfonamide moiety as carbonic anhydrase inhibitors with antitumor activity” (Eur J Med Chem, 2019).
Calls of active or inactive are those of the source. The rule behind the calls is not given here.

Tests used:
Carbonic anhydrase 9 = Carbonic anhydrase 9 (Homo sapiens, UniProt Q16790); experiment: Inhibition of recombinant human carbonic anhydrase 9 preincubated for 15 mins by phenol red dye based stopped flow CO2 hydration assay
MDA-MB-231 [1] = experiment: Cytotoxicity against human MDA-MB-231 cells assessed as reduction in cell viability at 3 uM after 48 hrs under normoxia condition by MTT assay relative to control; assay type: functional
MDA-MB-231 [2] = experiment: Cytotoxicity against human MDA-MB-231 cells assessed as reduction in cell viability at 10 uM after 48 hrs under normoxia condition by MTT assay; assay type: functional, cell-based
MDA-MB-231 [3] = experiment: Cytotoxicity against human MDA-MB-231 cells assessed as reduction in cell viability at 3 uM after 48 hrs under hypoxia condition by MTT assay relative to control; assay type: functional
MDA-MB-231 [4] = experiment: Cytotoxicity against human MDA-MB-231 cells assessed as reduction in cell viability at 30 uM after 48 hrs under hypoxia condition by MTT assay relative to control; assay type: functional
MDA-MB-231 [5] = experiment: Cytotoxicity against human MDA-MB-231 cells assessed as reduction in cell viability at 3 to 10 uM after 48 hrs under normoxia condition by MTT assay; assay type: functional, cell-based

Row | SMILES | Ki (Carbonic anhydrase 9) | other results
1 | Cc1ccc([Te]CC(O)COc2ccc(S(N)(=O)=O)cc2)cc1 (centres undefined) | 118 nM | –
2 | Cc1ccccc1[Te]CC(O)COc1ccc(S(N)(=O)=O)cc1 (centres undefined) | 9.5 nM | Activity (MDA-MB-231 [1]): >50%; Activity (MDA-MB-231 [2]): Active; Activity (MDA-MB-231 [3]): 32%; Activity (MDA-MB-231 [4]): >50%
3 | COc1ccc([Te]CC(O)COc2ccc(S(N)(=O)=O)cc2)cc1 (centres undefined) | 7.8 nM | –
4 | NS(=O)(=O)c1ccc(OCC(O)C[Te]CC(O)COc2ccc(S(N)(=O)=O)cc2)cc1 (centres undefined) | 809 nM | –
5 | CC[Te]CC(O)COc1ccc(S(N)(=O)=O)cc1 (centres undefined) | 40.7 nM | –
6 | NS(=O)(=O)c1ccc(OCC(O)C[Te]c2ccccc2)cc1 (centres undefined) | 14.8 nM | –
7 | NS(=O)(=O)c1ccc(OCC(O)C[Te]c2ccc3ccccc3c2)cc1 (centres undefined) | 6.4 nM | Activity (MDA-MB-231 [4]): 90%; Activity (MDA-MB-231 [5]): Active
8 | CCCC[Te]CC(O)COc1ccc(S(N)(=O)=O)cc1 (centres undefined) | 333 nM | –
